Target: HIV-1 protease (Human immunodeficiency virus type 1 group M subtype B, UniProt P04585)
Assay: Inhibition of microbial expressed viral protease (HIV-1 protease), method of Toth and Marshall
Type: biochemical
Protocol: Biological Assay for Inhibition of Microbial Expressed Viral Protease
The inhibition constants against HIV-1 protease were measured using the method described by M. V. Toth and G. R. Marshall, Int. J. Peptide protein Res., 1990, 544. The method described M. W. Pennington et al., Peptides 1990, Gimet, E. and D. Andrew, Eds., Escom; Leiden, Netherlands (1990) may also be used. The potency is measured as IC50in μM. The person of skill would accept these tests as predictive of the compounds' utility in vivo to treat HIV infected patients.

Structure (SMILES): CC(C)(C)OC(=O)N[C@@H](Cc1ccccc1)[C@H](O)CCc1ccccc1C(=O)N[C@H](CO)c1ccccc1 [Example 001054]
- IC50: 100 to 10000 nM

Structure (SMILES): Cc1nocc1C(=O)N[C@@H](Cc1ccccc1)[C@H](O)CCc1ccccc1C(=O)NC(C)(C)C [Example 001154]
- IC50: 100 to 10000 nM

Structure (SMILES): CC(C)(C)NC(=O)c1ccccc1CC[C@@H](O)[C@H](Cc1ccccc1)NC(=O)COc1cc(F)cc(F)c1 [Example 001182]
- IC50: > 10000 nM

Structure (SMILES): Cc1cccc(OCC(=O)N[C@@H](Cc2ccccc2)[C@H](O)CCc2ccccc2C(=O)NC(C)(C)C)c1 [Example 001185]
- IC50: 100 to 10000 nM

Structure (SMILES): Cc1ccc(OCC(=O)N[C@@H](Cc2ccccc2)[C@H](O)CCc2ccccc2C(=O)NC(C)(C)C)cc1 [Example 001186]
- IC50: 100 to 10000 nM

Structure (SMILES): CC(C)(C)NC(=O)c1ccccc1CC[C@@H](O)[C@H](Cc1ccccc1)NC(=O)CSc1ccccc1 [Example 001190]
- IC50: 100 to 10000 nM

Structure (SMILES): CC(C)(C)NC(=O)c1ccccc1CC[C@@H](O)[C@H](Cc1ccccc1)NC(=O)CNc1ccccc1 [Example 001192]
- IC50: 100 to 10000 nM

Structure (SMILES): Cc1ccc(C)c(OCC(=O)N[C@@H](Cc2ccccc2)[C@H](O)CCc2ccccc2C(=O)NC(C)(C)C)c1C [Example 001201]
- IC50: < 100 nM

Structure (SMILES): CC(C)(C)NC(=O)c1ccccc1CC[C@@H](O)[C@H](Cc1ccccc1)NC(=O)COc1c(Cl)cccc1Cl [Example 001203]
- IC50: 100 to 10000 nM

Structure (SMILES): CC(C)(C)NC(=O)c1ccccc1CC[C@@H](O)[C@H](Cc1ccccc1)NC(=O)COc1ccccc1C(F)(F)F [Example 001204]
- IC50: 100 to 10000 nM

Structure (SMILES): C=CCc1cccc(C)c1OCC(=O)N[C@@H](Cc1ccccc1)[C@H](O)CCc1ccccc1C(=O)NC(C)(C)C [Example 001206]
- IC50: 100 to 10000 nM

Structure (SMILES): COc1cccc(OC)c1OCC(=O)N[C@@H](Cc1ccccc1)[C@H](O)CCc1ccccc1C(=O)NC(C)(C)C [Example 001210]
- IC50: 100 to 10000 nM

Structure (SMILES): Cc1cc([N+](=O)[O-])cc(C)c1OCC(=O)N[C@@H](Cc1ccccc1)[C@H](O)CCc1ccccc1C(=O)NC(C)(C)C [Example 001211]
- IC50: 100 to 10000 nM

Structure (SMILES): COc1cccc(C)c1OCC(=O)N[C@@H](Cc1ccccc1)[C@H](O)CCc1ccccc1C(=O)NC(C)(C)C [Example 001213]
- IC50: < 100 nM

Structure (SMILES): CC(C)(C)NC(=O)c1ccccc1CC[C@@H](O)[C@H](Cc1ccccc1)NC(=O)COc1c(F)cccc1F [Example 001214]
- IC50: < 100 nM

Structure (SMILES): Cc1cccc(Cl)c1OCC(=O)N[C@@H](Cc1ccccc1)[C@H](O)CCc1ccccc1C(=O)NC(C)(C)C [Example 001215]
- IC50: < 100 nM

Structure (SMILES): Cc1cc(Br)cc(Cl)c1OCC(=O)N[C@@H](Cc1ccccc1)[C@H](O)CCc1ccccc1C(=O)NC(C)(C)C [Example 001216]
- IC50: 100 to 10000 nM

Structure (SMILES): COc1cccc(F)c1OCC(=O)N[C@@H](Cc1ccccc1)[C@H](O)CCc1ccccc1C(=O)NC(C)(C)C [Example 001217]
- IC50: 100 to 10000 nM

Structure (SMILES): Cc1cc(Br)cc(C)c1OCC(=O)N[C@@H](Cc1ccccc1)[C@H](O)CCc1ccccc1C(=O)NC(C)(C)C [Example 001218]
- IC50: < 100 nM

Structure (SMILES): CC(C)CC(O)C(=O)NC(Cc1ccccc1)C(O)CCc1ccccc1C(=O)NC(C)(C)C (stereo not drawn) [Example 001219]
- IC50: 100 to 10000 nM

Structure (SMILES): CC(C)(C)NC(=O)c1ccccc1CC[C@@H](O)[C@H](Cc1ccccc1)NC(=O)COc1c(Cl)cc(Cl)cc1Cl [Example 001224]
- IC50: < 100 nM

Structure (SMILES): Cc1cc(Br)c(OCC(=O)N[C@@H](Cc2ccccc2)[C@H](O)CCc2ccccc2C(=O)NC(C)(C)C)c(Br)c1 [Example 001225]
- IC50: 100 to 10000 nM

Structure (SMILES): CC(C)(C)NC(=O)c1ccccc1CC[C@@H](O)[C@H](Cc1ccccc1)NC(=O)COc1c(Br)cc(F)cc1Br [Example 001226]
- IC50: 100 to 10000 nM

Structure (SMILES): CC(C)(C)NC(=O)c1ccccc1CC[C@@H](O)[C@H](Cc1ccccc1)NC(=O)COc1ccc(F)c(F)c1F [Example 001227]
- IC50: 100 to 10000 nM

Structure (SMILES): CC(C)(C)NC(=O)c1ccccc1CC[C@@H](O)[C@H](Cc1ccccc1)NC(=O)COC1CCCCC1 [Example 001228]
- IC50: 100 to 10000 nM

Structure (SMILES): CC1CCCCC1OCC(=O)NC(Cc1ccccc1)C(O)CCc1ccccc1C(=O)NC(C)(C)C (stereo not drawn) [Example 001229]
- IC50: 100 to 10000 nM

Structure (SMILES): CC1CCCC(C)C1OCC(=O)NC(Cc1ccccc1)C(O)CCc1ccccc1C(=O)NC(C)(C)C (stereo not drawn) [Example 001230]
- IC50: 100 to 10000 nM

Structure (SMILES): CCC(CC)OCC(=O)N[C@@H](Cc1ccccc1)[C@H](O)CCc1ccccc1C(=O)NC(C)(C)C [Example 001231]
- IC50: 100 to 10000 nM

Structure (SMILES): Cc1ccc(CC[C@@H](O)[C@H](Cc2ccccc2)NC(=O)COc2c(C)cccc2C)c(C(=O)NC(C)(C)C)c1 [Example 001237]
- IC50: < 100 nM

Structure (SMILES): Cc1cccc(C)c1OCC(=O)N[C@@H](Cc1ccccc1)[C@H](O)CCc1cccc(F)c1C(=O)NC(C)(C)C [Example 001239]
- IC50: < 100 nM

Structure (SMILES): Cc1c(O)cccc1OCC(=O)N[C@@H](Cc1ccccc1)[C@H](O)CCc1ccccc1C(=O)NC(C)(C)C [Example 001246]
- IC50: < 100 nM

Structure (SMILES): Cc1cccc(C)c1OCC(=O)N[C@@H](Cc1ccccc1)[C@H](O)CCc1cccc(C)c1C(=O)NC(C)(C)C [Example 001249]
- IC50: < 100 nM

Structure (SMILES): Cc1cc(CO)cc(C)c1OCC(=O)N[C@@H](Cc1ccccc1)[C@H](O)CCc1ccccc1C(=O)NC(C)(C)C [Example 001267]
- IC50: < 100 nM

Structure (SMILES): CC(C)(C)NC(=O)c1ccccc1CC[C@@H](O)[C@H](Cc1ccccc1)NC(=O)COc1cccnc1Cl [Example 001268]
- IC50: 100 to 10000 nM

Structure (SMILES): Cc1cc(C(=O)N[C@@H](Cc2ccccc2)[C@H](O)CCc2ccccc2C(=O)NC(C)(C)C)cc(C)c1OCC(=O)O [Example 001278]
- IC50: 100 to 10000 nM

Structure (SMILES): Cc1cc(C(=O)O)ccc1OCC(=O)N[C@@H](Cc1ccccc1)[C@H](O)CCc1ccccc1C(=O)NC(C)(C)C [Example 001279]
- IC50: 100 to 10000 nM

From US6696494B2, “α-hydroxyarylbutanamine inhibitors of aspartyl protease” (Enanta Pharmaceuticals, Inc., priority 2001, dated 2004)
